Data on 4 compounds can be found in publication PMC13052075, “Synthesis of 1,2,3,4‐Tetrahydroisoquinoline‐3‐Carboxylic Acid‐Embedded Decapeptides: In Silico Studies and In Vitro Evaluation Against Breast Cancer” (ChemistryOpen, 2025).

Non-standard residues stand in square brackets, D forms with d. Residues, ends and D or L forms follow the SMILES beside them. Tic = O=C(O)[C@@H]1Cc2ccccc2CN1

This assay has as its system MCF‐7 human breast cancer cell line. In words: cells. To be noted: for IC50: 24 h. As for the experimental part: Using GraphPad Prism software, the IC50 values were determined (Figure 8). After conducting the MTT assay, the absorbance data was entered into the software to generate dose–response curves. The nonlinear regression analysis function, specifically log(inhibitor) verus normalized response was employed to calculate the IC50 values for each compound. This method allowed for accurate determination of the concentration required to inhibit 50% of cell viability.
The MTT assay (3‐[4,5‐dimethylthiazol‐2‐yl]‐2,5‐diphenyltetrazolium bromide) was employed to evaluate the anticancer potential of the synthesized compounds against the MCF‐7 human breast cancer cell line. MCF‐7 cells were seeded into a 96‐well plate at a density of 1 × 10^4 cells per well and allowed to adhere for 24 h. Subsequently, the cells were treated with the test compounds at concentrations of 0.1, 1, 2, 5, and 10 µM, prepared in plain Dulbecco's Modified Eagle Medium (DMEM) media. After 24 h of incubation, MTT solution (100 µg per well; Sigma‐Aldrich) was added, and the plates were incubated for an additional 3–4 h to allow the formation of formazan crystals. The resulting formazan was dissolved in DMSO, and absorbance was measured at 570 nm using a microplate reader.

In general, IC50 refers to the concentration that inhibits the measured activity by half. Read a low IC50 as greater potency. `CC(C)C[C@H](NC(=O)[C@H](Cc1c[nH]c2ccccc12)NC(=O)[C@H](CO)NC(=O)[C@H](CCC(=O)O)NC(=O)[C@@H]1Cc2ccccc2CN1C(=O)[C@H](Cc1c[nH]cn1)NC(=O)[C@H](CCCCN)NC(=O)[C@H](CCCNC(=N)N)NC(=O)[C@H](CS)NC(=O)[C@@H](N)CCCCN)C(=O)O` [DEC‐3] (H-KCRKH[Tic]ESWL-OH) came in with an IC50 of 4.49 µM.
Same read-out and setting: the result for `CC(C)C[C@H](NC(=O)[C@H](Cc1c[nH]c2ccccc12)NC(=O)[C@H](CO)NC(=O)[C@H](CCC(=O)O)NC(=O)[C@@H]1Cc2ccccc2CN1C(=O)[C@H](Cc1c[nH]cn1)NC(=O)[C@H](CCCNC(=N)N)NC(=O)[C@H](CCCCN)NC(=O)[C@H](CS)NC(=O)[C@@H](N)CCCNC(=N)N)C(=O)O` [DEC‐2] (H-RCKRH[Tic]ESWL-OH) reads 6.1 µM.
What is called inhibition is the change of the read-out against control, counted positive when it falls. Take `CC/C(=C(\c1ccccc1)c1ccc(OCCN(C)C)cc1)c1ccccc1` [Tamoxifen, tamoxifen]: the inhibition at 0.1 µM (Homo sapiens, MCF7, 24 h, read-out: % Inhibition 0.1 µM) was 14.1 ± 5.41%. For the same compound, the inhibition at 1 µM (Homo sapiens, MCF7, 24 h, read-out: % Inhibition 1 µM) was found to be 29.6 ± 10.4%. In addition, the inhibition at 2 µM (Homo sapiens, MCF7, 24 h, read-out: % Inhibition 2 µM) worked out at 38.2 ± 2.76%. In addition, under “Homo sapiens, MCF7, 24 h, read-out: % Inhibition 5 µM”, the inhibition at 5 µM turned out to be 57.2 ± 5.99%. Also, the inhibition at 10 µM (Homo sapiens, MCF7, 24 h, read-out: % Inhibition 10 µM) stood at 92.21 ± 0.73%.
With `CC(C)C[C@H](NC(=O)[C@H](Cc1c[nH]c2ccccc12)NC(=O)[C@H](CO)NC(=O)[C@H](CCC(=O)O)NC(=O)[C@@H]1Cc2ccccc2CN1C(=O)[C@H](CCCCN)NC(=O)[C@H](Cc1c[nH]cn1)NC(=O)[C@H](CCCNC(=N)N)NC(=O)CNC(=O)[C@@H](N)Cc1c[nH]cn1)C(=O)O` [DEC‐1] (H-HGRHK[Tic]ESWL-OH), the IC50 was determined as 3.38 µM.
